# According to publication PMC9946977, “Identification of linderalactone as a natural inhibitor of SHP2 to ameliorate CCl4-induced liver fibrosis” (Frontiers in Pharmacology, 2023):
# What was measured:
# [1] = target: T1, SHP2-PTP K366A/Q510A double mutant (Homo sapiens, UniProt Q06124, K366A/Q510A); assay: BLI assay, SHP2-PTP K366A/Q510A double mutant; type: binding
# T1 construct: Human SHP2 PTP domain (A237–I529) expression constructs; His-tag; made in house; host or cells: E. coli BL21 (DE3)
# T1 sequence (Q06124 237-529 K366A/Q510A): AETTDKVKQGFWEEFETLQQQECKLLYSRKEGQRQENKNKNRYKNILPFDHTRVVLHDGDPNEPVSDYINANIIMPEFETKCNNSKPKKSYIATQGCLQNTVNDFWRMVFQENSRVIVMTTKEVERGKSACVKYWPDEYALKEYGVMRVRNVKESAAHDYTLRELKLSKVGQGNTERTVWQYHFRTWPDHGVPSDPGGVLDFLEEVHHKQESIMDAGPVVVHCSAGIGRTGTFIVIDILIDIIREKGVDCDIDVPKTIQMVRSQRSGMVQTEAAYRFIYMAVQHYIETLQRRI
# Protocol: Human SHP2 PTP domain (A237–I529) expression constructs were engineered by cloning PTPN11 (NP_002825.3) into the pET30 plasmid with a His-tag to support further protein purification. The K366A/Q510A double mutation was introduced into the wild-type template using a site-directed mutagenesis kit (E0554S; New England Biolabs). The expression constructs were sequenced and transformed into BL21 (DE3)-competent cells. E. coli cells were grown at 37°C in an LB culture medium in the presence of […] kanamycin until the OD600 reached 1.0. The medium was then cooled to 18°C and 1 mM isopropyl ß-D-1-thiogalactopyranoside (IPTG) was added to induce protein expression overnight.
# Cell pellets were collected and suspended in a buffer of 50 mM Tris-HCl (Ph = 8.5), 150 mM NaCl supplemented with 10% glycerol, and lysed by homogeniser (JN-BIO, China). […]
# The BLI assay was performed using a FortéBio Octet 96 system. […] After equilibrium, the kinetics of the LIN and SHP2-PTP association were analysed by soaking the SSA sensors in a compound solution with various LIN concentrations for 300 s (6.25, 12.5, 25, 50, 100, and 200 μM), followed by 300 s of dissociation in the same HEPES buffer. The equilibrium constant (KD) values were assessed using the FortéBio data analysis software by fitting the kinetic data using a 1:1 binding model.
# SHP2-depleted LX-2 cells = assay: SHP2 knockdown (siRNA) LX-2 cells treated with LIN; type: cell-based, human; conditions: LX-2 cells transfected with SHP2 siRNA
# Protocol: The LX-2 cell line was purchased from the Cell Bank Type Culture Collection of the Chinese Academy of Sciences (Shanghai, China). Cells were cultured in DMEM supplemented with 10% [v/v] foetal bovine serum, 2 mM glutamine, 100 U/ml penicillin, and […] streptomycin. SHP-2 and control siRNAs were obtained from Suzhou GenePharma Co., Ltd. (sense 5'-3': GAGAGAGGAAAGAGUAAAUTT; antisense 5'-3': AUUUACUCUUUCCUCUCUCTT). Transfection was performed according to the manufacturer’s instructions. Subsequent real-time PCR and western blotting were performed to analyse transfection efficiency.
# Total RNA was extracted from liver tissues and LX-2 cells using the TRIzol reagent. cDNA was synthesised using a PrimeScript RT Master Mix kit. Real-time PCR was performed using SYBR Green premix according to the manufacturer’s instructions. Relative expression of target genes was normalised to actin, analysed by the delta-delta-CT method and given as a ratio compared with the vehicle control. Primer sequences used in this study are listed in Supplementary Material.
smiles,measurement,setting,value
"C/C1=C\CCC2=C[C@@H](OC2=O)c2c(C)coc2C1 [LIN, linderalactone]",BLI response value,[1]; 200 μM LIN,lower than 0.2
same,effect of K366A/Q510A mutation on binding affinity between LIN and SHP2-PTP,[1]; BLI,significantly eliminated
same,sensitivity of fibrogenic gene expression to LIN treatment,SHP2-depleted LX-2 cells,much less sensitive
